The results in this text go back to patent publication US9539303B2, “Treatment of Ras-expressing tumors” (Celgene Corporation, priority 2006, dated 2017).

Assay [1] concerns Panc-1 human pancreas tumors (oncogenic K-ras). Put plainly: Panc-1 mouse xenograft model, tumor growth (Example 1). The format is in vivo, female nude mice. The note with it: Panc-1 xenograft; FK228 IV Q4Dx3 and/or gemcitabine IP Q3Dx4; vs vehicle control. As for the experimental part:
In this study, female nude mice were implanted subcutaneously (SC) by trocar with Panc-1 tumor fragments harvested from SC growing tumors in nude mice hosts. […] The day of treatment initiation was specified as Day 1. Vehicle control and FK228 were administered intravenously on a […] schedule (Days 1, 5, and 9). Gemcitabine was administered by an intraperitoneal injection on a […] schedule (Days 1, 4, 7, 10). Tumors were measured by Vernier calipers twice weekly.

A further assay relates to B-Raf 600E cells. As to the kind of experiment: 4-day proliferation assay, B-Raf 600E NIH-3T3 cells. The note with it: 2, 3, or 4 nM romidepsin. Type of assay: cell-based, mouse. As for the experimental part: A series of transformed NIH-3T3 cell likes were generated and a proliferation assay was performed in the presence of 2, 3, or 4 nM romidepsin. FIG. 23 illustrates the transformed morphology of the cells. FIG. 24 presents graphs of cell proliferation.

Consider `C/C=C1\NC(=O)[C@H]2CSSCC/C=C/[C@H](CC(=O)N[C@H](C(C)C)C(=O)N2)OC(=O)[C@H](C(C)C)NC1=O` [FK228, romidepsin], for which the tumor growth inhibition in assay [1] was 26%. In addition, the potency on proliferation result in the assay on B-Raf 600E cells was “not potent”.
